What was measured:
[1] = tested on: VISUAL-cultured wild-type cotyledons (sieve element-specific genes); assay: RNAseq transcriptomic response in the VISUAL trans-differentiation assay; assay type: cell-based, Arabidopsis thaliana; conditions: for Number of responsive genes / Overlap of CLE26- and CLE45-responsive genes: 100 nM peptide, 2 h, q value<0.01
Text: In an attempt to isolate novel components of CLE peptide signaling in A. thaliana root protophloem development, we embarked on a combinatorial approach of transcriptomic analysis and forward genetics. Experimental investigation of developing protophloem sieve elements is inherently difficult, because they represent only 40-50 cells inside the vascular cylinder of the root meristem, and some of our genes of interest are expressed only in a subset of these. Protophloem-specific transcriptomic responses are thus strongly diluted when root tips are assayed, and attempts to identify, e.g. protophloem-specific CLE45-responsive genes have so far been unsuccessful ([Depuydt et al., 2013]). However, in a novel trans-differentiation assay [vascular cell induction culture system using Arabidopsis leaves (VISUAL)] ([Kondo et al., 2016]), in which cotyledon or leaf mesophyll cells are re-programmed to differentiate into a ∼50:50 mix of xylem vessels and sieve elements, sieve element-specific genes can be monitored in unprecedented abundance. Although these trans-differentiated sieve elements are not root protophloem, they do represent a native cell type in which sieve element regulators can be investigated successfully ([Breda et al., 2017]; [Kondo et al., 2016]). Moreover, a transcriptomic time series identified BAM3 as a central node in the early module of the trans-differentiation process ([Kondo et al., 2016]). Thus, we concluded that VISUAL could be employed to identify CLE26- and CLE45-responsive sieve element-specific genes. To achieve this, we VISUAL-cultured wild-type cotyledons and monitored BAM3 expression in a parallel cultured transgenic line that carried a BAM3::GUS reporter gene. Strong comprehensive BAM3 expression was observed after 48 h. At this time point, the wild-type sample was split in replicates and treated with control, 100 nM CLE26 or 100 nM CLE45 for 2 h. Total RNA was isolated immediately after from these samples, and cDNA was prepared for high-throughput sequencing.
Vascular tissue trans-differentiation was induced in cotyledons over 2 days as described previously ([Kondo et al., 2016]). Samples were then treated with 100 nM of CLE26 or CLE45 peptide for 2 h. Total RNA of two biological replicates was then extracted from 100 mg of fresh material, using RNeasy Plant mini kits (Qiagen). Truseq Stranded mRNA kits (Illumina) were used to prepare cDNA libraries, which were sequenced on an Illumina Hiseq 2500 instrument. Read counts and differential expression were determined with Kallisto ([Bray et al., 2016]) and Sleuth ([Pimentel et al., 2017]) software, using the TAIR10 reference transcriptome. The raw data have been deposited in the NCBI Sequence Read Archive (www.ncbi.nlm.nih.gov/sra/) under accession SRP126390.

[2] = tested on: CLERK ectodomain (CLERK-ECD); assay: Isothermal titration calorimetry, CLERK ectodomain; assay type: binding, Arabidopsis thaliana; conditions: ITC, 25°C, 20 mM citrate (pH 5.0), 150 mM NaCl; 400 µM peptide into 30 µM CLERK-ECD
Protocol: Isolation of recombinant proteins and analytical gel filtrations were carried out as described previously ([Hazak et al., 2017]) with small adjustments. The coding sequences for BAM1-ECD (amino acids 20-637), BAM3-ECD (30-651), PXY-ECD (30-647), NIK1-ECD (32-248), NIK2-ECD (33-248), NIK3-ECD (26-238), CLERK-ECD (28-236) and At5G63710-ECD (51-224) were amplified from Arabidopsis thaliana cDNA using PfuX7 polymerase. All ECD-coding sequences were then cloned into a modified pFAST-BAC1 vector (Geneva Biotech) by GIBSON cloning, resulting in the addition of the azurocidin signal peptide sequence to the 5′-end, and of a 2×-STREP-9×HIS tag to the 3′-end of the ECD sequences. These plasmids, after being confirmed by sequencing, were transformed into Escherichia coli DH10MultiBac (Geneva Biotech) followed by the extraction of the resulting bacmids. Transfection of the bacmids into Spodoptera frugiperda Sf9 cells with Profectin (AB Vector) was carried out to produce and amplify the respective virus. Recombinant secreted expression of the proteins was carried out by addition of virus to Trichoplusia ni Tnao38 cells to reach a viral multiplicity of 1 and incubation of the cells for 3 days. […] Concentrations of the pure proteins were assessed by measuring their absorbance at 280 nm (NanoDrop Lite; Thermo Scientific) and subsequent correction with their respective extinction coefficient. […]

RKVPRGPDPIHN [CLE26]
Regulation of SARK and NIK2 ([1]; 100 nM CLE26, 2 h): downregulated | Regulation of CLERK (At2g23950) ([1]; 100 nM CLE26, 2 h, top CLE26-responsive gene): downregulated | Number of responsive genes [1]: 167 genes | Overlap of CLE26- and CLE45-responsive genes [1]: 36 genes | Direct binding to CLERK ectodomain [2]: no direct binding

RRVRRGSDPIHN [CLE45]
Number of responsive genes [1]: 97 genes | Overlap of CLE26- and CLE45-responsive genes [1]: 36 genes | Direct binding to CLERK ectodomain [2]: no direct binding

— publication PMC6001375, “CLERK is a novel receptor kinase required for sensing of root-active CLE peptides in Arabidopsis” (Development (Cambridge, England), 2018)
